Results from US20090143279A1 (priority 2007, published 2009).
Where two headings read alike, the source gives them in different places.

Key:
cytochrome c = assay type: cell-based, mouse; conditions: Conc 20 μM
[1] = system: mitochondrial membrane potential; assay type: cell-based, mouse
nuOXPHOS transcripts = assay type: cell-based, mouse; conditions: Conc 20 μM
mtOXPHOS transcripts = assay type: cell-based, mouse; conditions: Conc 20 μM
reactive oxygen species = assay type: cell-based, mouse
OXPHOS gene expression = assay type: cell-based, mouse; conditions: Conc 20 μM
[2] = system: cellular dehydrogenase activity
[3] = composite Z-score vs mock-treated (DMSO) wells
[4] = composite Z-score vs mock-treated (DMSO) wells, Conc 20 μM
[5] = normalized composite Z-score vs mock-treated (DMSO) wells
[6] = normalized composite Z-score vs mock-treated (DMSO) wells, Conc 20 μM
[7] = composite Z-score vs DMSO, Conc 20 μM
[8] = normalized score vs mock-treated (DMSO) wells
[9] = Conc 20 μM, normalized score vs mock-treated (DMSO) wells
[10] = Table 4, C2C12 myotubes, 48 h, composite Z-score

SMILES	cyt c (cytochrome c; [3])	ΔΨm [1, 4]	nucOX (nuOXPHOS transcripts; [3])	mitoOX (mtOXPHOS transcripts; [3])	Viability (C2C12 myotubes; [4])	ROS (reactive oxygen species; [4])	GE-HTS (OXPHOS gene expression; [3])	MTT [2, 4]	cyt c (cytochrome c; [5])	ΔΨm [1, 6]	nucOX (nuOXPHOS transcripts; [5])	mitoOX (mtOXPHOS transcripts; [5])	Viability (C2C12 myotubes; [6])	ROS (reactive oxygen species; [6])	GE-HTS (OXPHOS gene expression; [5])	MTT [2, 6]	other results
CC1(C)C(=O)C=C[C@@]2(C)C1CC(=O)[C@@]1(C)C3=CC(=O)O[C@@H](c4ccoc4)[C@]3(C)CCC12 (stereo partly drawn) [7-deacetoxy-7-oxodeoxygedunin]	0.166	0.757	−1.586	−1.925	0.224	−0.489	−1.791	−1.467	–	–	–	–	–	–	–	–	–
CC(=O)O[C@H]1C[C@@H](OC(C)=O)C(C)(C)C2CC(=O)[C@]3(C)C(CC[C@@]4(C)[C@H](c5ccoc5)OC(=O)[C@H]5O[C@]543)[C@]21C (stereo partly drawn) [7-deacetoxy-7-oxokhivorin]	−0.184	0.258	0.690	0.738	0.053	0.070	0.777	−0.095	–	–	–	–	–	–	–	–	–
CC(=O)O[C@H]1C[C@@H](OC(C)=O)C(C)(C)C2C[C@@H](O)[C@]3(C)C(CC[C@@]4(C)[C@H](c5ccoc5)OC(=O)[C@H]5O[C@]543)[C@]21C (stereo partly drawn) [7-deacetylkhivorin]	0.079	−0.049	0.543	0.188	0.893	−0.618	0.477	0.608	–	–	–	–	–	–	–	–	–
CC1(C)C(=O)C=C[C@]2(C)[C@H]3CC[C@@]4(C)[C@H](c5ccoc5)OC(=O)[C@H]5O[C@]54[C@]3(C)C=C[C@@H]12 [7-desacetoxy-6,7-dehydrogedunin]	–	–	–	–	–	–	–	–	0.198	−1.799	−0.695	−2.631	−0.973	−3.492	−1.430	−1.891	–
COc1ccc(-c2coc3c(OC)c(O)ccc3c2=O)cc1 [7-hydroxy-8,4′-dimethoxyisoflavone]	–	–	–	–	–	–	–	–	0.363	−0.417	−0.994	−0.667	−1.022	1.404	−0.962	−1.073	–
COc1ccc2c(=O)ccoc2c1 [7-methoxychromone]	–	–	–	–	–	–	–	–	–	–	–	–	–	–	–	–	cyt c (cytochrome c; composite Z-score vs DMSO): 0.511; ΔΨm [1, 7]: −0.875; nucOX (nuOXPHOS transcripts; composite Z-score vs DMSO): −0.818; mitoOX (mtOXPHOS transcripts; composite Z-score vs DMSO): −0.451; Viability (C2C12 myotubes; [7]): −0.999; ROS (reactive oxygen species; [7]): 0.919; GE-HTS (OXPHOS gene expression; composite Z-score vs DMSO): −0.759; MTT [2, 7]: −0.963
COC(=O)C1(C)CCCC2(C)c3ccc(C(C)C)cc3C(=O)CC12 (stereo not drawn) [7-oxocallitrisic acid, methyl ester]	–	–	–	–	–	–	–	–	–	–	–	–	–	–	–	–	cyt c (cytochrome c; composite Z-score vs DMSO): −0.923; ΔΨm [1, 7]: 2.079; nucOX (nuOXPHOS transcripts; composite Z-score vs DMSO): −0.457; mitoOX (mtOXPHOS transcripts; composite Z-score vs DMSO): −1.555; Viability (C2C12 myotubes; [7]): 1.266; ROS (reactive oxygen species; [7]): 0.162; GE-HTS (OXPHOS gene expression; composite Z-score vs DMSO): −0.876; MTT [2, 7]: 0.111
COc1ccccc1-c1cc(=O)c2cccc(OC)c2o1 [8,2′-dimethoxyflavone]	–	–	–	–	–	–	–	–	–	–	–	–	–	–	–	–	cyt c (composite Z-score) (cytochrome c; [8]): 0.864; ΔΨm (composite Z-score) [1, 9]: 1.282; nucOX (composite Z-score) (nuOXPHOS transcripts; [8]): −0.414; mitoOX (composite Z-score) (mtOXPHOS transcripts; [8]): −0.811; Viability (composite Z-score) (C2C12 myotubes; [9]): −1.096; ROS (composite Z-score) (reactive oxygen species; [9]): 1.219; GE-HTS (composite Z-score) (OXPHOS gene expression; [8]): −0.593; MTT (composite Z-score) [2, 9]: −0.556
CC(=O)C=CC1C(C)(O)CCC2C(C)(C)CCCC21C (stereo not drawn) [8-hydroxy-15,16-bisnor-11-labden-13-one]	–	–	–	–	–	–	–	–	0.550	0.798	−0.078	−1.430	−1.702	0.504	−0.554	−0.248	–
COc1ccc([C@H]2Oc3c(I)c(OC)cc(OC)c3C[C@@H]2O)cc1OC [8-iodocatechin tetramethyl ether, reference compound]	0.237	0.146	−0.985	−1.411	0.377	−0.448	−1.194	−1.359	–	–	–	–	–	–	–	–	ΔΨm ([1]; Table 4, C2C12 myotubes, 48 h, JC-1, composite Z-score): 0.146; Viability (C2C12 myotubes; [10]): 0.377; ROS (reactive oxygen species; [10]): −0.448; MTT [2, 10]: −1.359
